Measured values from ChEMBL document CHEMBL3886743, “Immune system modulators” (2016).

target: T1, Toll-like receptor 9 (Homo sapiens, UniProt Q9NR96); test: TLR9 Antagonism Assay: Day 1: A cell suspension of HEK-Blue™-hTLR9 cells at ~450,000 cells per ml in test medium which contained 5% (v/v) heat inactivated FBS was prepared. 180 μl of cell suspension (~80,000 cells) was added per well of a flat-bottom 96-well plate and place in an incubator at 37° C. for overnight. Day 2: Test compounds were serially diluted in test medium, generally starting at 10 μM, and diluting by 3 fold in a 96 well master plate. 20 μl of diluted test compound was transferred using a 12 channel multi-channel pipet to the cell plate and incubated at 37° C. for 1 hour. Then 20 μl of an hTLR9 agonist (such as ODN 2006, 1 μM) was added to each well and the plate incubated at 37° C. overnight. Day 3: Invivogen's QUANTI-Blue™ was prepared following the manufacturer's instructions. […] of resuspended QUANTI-Blue™ was added per well of a flat bottom 96-well plate. 20 μl per well of induced HEK-Blue™-hTLR9 cells supernatant was then added to the plate and the plate was incubated at 37° C. for 1-3 h. SEAP levels were determined using a spectrophotometer at 620 nm.
T1 sequence (Q9NR96 whole entry): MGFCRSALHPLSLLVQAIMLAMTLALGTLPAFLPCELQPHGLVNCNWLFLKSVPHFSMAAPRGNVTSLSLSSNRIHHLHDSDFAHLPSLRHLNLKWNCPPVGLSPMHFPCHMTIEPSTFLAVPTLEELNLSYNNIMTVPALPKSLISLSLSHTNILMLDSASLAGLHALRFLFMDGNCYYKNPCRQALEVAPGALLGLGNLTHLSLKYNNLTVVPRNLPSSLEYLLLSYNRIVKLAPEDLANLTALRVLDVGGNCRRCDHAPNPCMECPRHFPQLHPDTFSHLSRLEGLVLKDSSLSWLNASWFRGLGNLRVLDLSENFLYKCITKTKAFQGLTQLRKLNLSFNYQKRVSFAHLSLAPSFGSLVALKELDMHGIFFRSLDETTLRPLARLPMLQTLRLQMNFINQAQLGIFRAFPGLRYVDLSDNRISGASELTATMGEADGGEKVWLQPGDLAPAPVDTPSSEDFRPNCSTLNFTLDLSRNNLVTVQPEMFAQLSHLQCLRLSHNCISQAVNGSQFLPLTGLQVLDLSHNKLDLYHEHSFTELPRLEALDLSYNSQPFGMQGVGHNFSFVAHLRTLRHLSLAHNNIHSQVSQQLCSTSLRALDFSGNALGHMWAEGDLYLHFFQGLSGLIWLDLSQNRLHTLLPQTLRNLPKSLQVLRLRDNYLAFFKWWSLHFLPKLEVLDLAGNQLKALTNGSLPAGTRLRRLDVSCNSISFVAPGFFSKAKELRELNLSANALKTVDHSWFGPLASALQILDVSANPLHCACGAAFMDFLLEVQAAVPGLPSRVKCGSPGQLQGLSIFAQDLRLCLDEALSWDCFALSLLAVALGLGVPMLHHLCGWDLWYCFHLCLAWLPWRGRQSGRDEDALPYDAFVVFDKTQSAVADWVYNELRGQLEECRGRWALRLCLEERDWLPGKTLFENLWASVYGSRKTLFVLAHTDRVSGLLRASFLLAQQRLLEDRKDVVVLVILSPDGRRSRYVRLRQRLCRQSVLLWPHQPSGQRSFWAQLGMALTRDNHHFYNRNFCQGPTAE

Row | IC50 | SMILES
1 | 0.142 µM | CCN1CCN(c2ccc(-c3nc(NCCN4CCOCC4)c4nc[nH]c4n3)cc2)CC1
2 | 0.072 µM | CN1CCN(c2ccc(-c3nc(NCCN4CCOCC4)c4nc[nH]c4n3)cc2)CC1
3 | 5.2 µM | CCOC(=O)Cn1cnc2c(NCCN3CCOCC3)nc(-c3ccc(N4CCN(C)CC4)cc3)nc21

The remaining lines, values behind:

Row | SMILES | IC50
4 | CCCCSc1nc(NCCN2CCOCC2)c2nc(O)n(CCN3CCOCC3)c2n1 | 11.1 µM
5 | CN1CCN(CCNc2nc(-c3ccccc3)nc3c2ncn3CCN2CCN(C)CC2)CC1 | 0.604 µM
6 | CN1CCN(CCNc2nc(-c3ccccc3)nc3c2ncn3CCN2CCOCC2)CC1 | 3.29 µM
7 | c1ccc(-c2nc(NCCN3CCOCC3)c3ncn(CCN4CCOCC4)c3n2)cc1 | 7.53 µM
8 | Oc1nc2c(NCCN3CCOCC3)nc(-c3ccccc3)nc2n1CCN1CCOCC1 | 8.01 µM
